Laboratory results reported in patent US12551463B2, “Dosing of a Bruton's tyrosine kinase inhibitor” (Loxo Oncology, Inc., priority 2019, dated 2026).
Entries after “also recorded” stand apart in the source; their conditions may differ.

Assay: Phase 1/2 clinical study: safety, treatment-emergent adverse events
Assay type: in vivo
Protocol: This study includes monotherapy as well as combination treatment parts. The monotherapy part includes Phase 1 dose escalation and dose expansion as well as Phase 2. […] Phase 1 dose escalation will proceed prior to start of Phase 1b or Phase 2. Once a recommended Phase 2 dose (RP2D) is identified in Phase 1, enrollment can commence to the Phase 1b combination therapies and Phase 2 monotherapy cohorts.
Dose escalation will follow a 3+3 design starting with a 25 mg QD dose (followed by 50 mg QD (dose level cohort 2), 100 mg QD (dose level cohort 3), 150 mg QD (dose level cohort 4), 200 mg QD (dose level cohort 5), 250 mg QD (dose level cohort 6), and 300 mg QD (dose level cohort 7)). Cycle length will be 28 days.
Any toxicity, regardless of the NCI CTCAE v.5 grade, resulting in discontinuation, does reduction or considered a DLT unless the SRC determines the toxicity if clearly unrelated to study drug (i.e., related to the patient's underlying disease other medical condition or concomitant medications).

## COc1ccc(F)cc1C(=O)NCc1ccc(-c2nn([C@@H](C)C(F)(F)F)c(N)c2C(N)=O)cc1 [BTK-I, (S)-5-amino-3-(4-((5-fluoro-2-methoxybenzamido)methyl)phenyl)-1-(1,1,1-trifluoropropane-2-yl)-1H-pyrazole-4-carboxamide]
25 mg QD (N = 5)
  Abdominal pain (TEAE): 1 (20.0) n(%)
  Anaemia (TEAE): 0 (0.0) n(%)
  Back pain (TEAE): 0 (0.0) n(%)
  Constipation (TEAE): 0 (0.0^ n(%)
  Contusion (TEAE): 0 (0.0) n(%)
  Cough (TEAE): 3 (60.0) n(%)
  Diarrhoea (TEAE): 3 (60.0) n(%)
  Dizziness (TEAE): 2 (40.0) n(%)
  Dyspnoea (TEAE): 0 (0.0) n(%)
  Fatigue (TEAE): 3 (60.0) n(%)
  Headache (TEAE): 2 (40.0) n(%)
  Nausea (TEAE): 2 (40.0) n(%)
  Neutropenia (TEAE): 0 (0.0) n(%)
  Neutrophil count decreased (TEAE): 1 (20.0) n(%)
  Oedema peripheral (TEAE): 1 (20.0) n(%)
  Rash maculopapular (TEAE): 0 (0.0) n(%)
  Subjects with Any TEAEs: 5 (100.0) n(%)
  Upper respiratory tract infection (TEAE): 1 (20.0) n(%)
25 mg to 300 mg QD
  dose limiting toxicities: no dose limiting toxicities or dose reductions; also recorded: DLTS have not been observed
50 mg QD (N = 6)
  Abdominal pain (TEAE): 0 (0.0) n(%)
  Anaemia (TEAE): 0 (0.0) n(%)
  Back pain (TEAE): 0 (0.0) n(%)
  Constipation (TEAE): 0 (0.0) n(%)
  Contusion (TEAE): 2 (33.3) n(%)
  Cough (TEAE): 2 (33.3) n(%)
  Diarrhoea (TEAE): 1 (16.7) n(%)
  Dizziness (TEAE): 0 (0.0) n(%)
  Dyspnoea (TEAE): 0 (0.0) n(%)
  Fatigue (TEAE): 3 (50.0) n(%)
  Headache (TEAE): 1 (16.7) n(%)
  Nausea (TEAE): 2 (33.3) n(%)
  Neutropenia (TEAE): 1 (16.7) n(%)
  Neutrophil count decreased (TEAE): 0 (0.0) n(%)
  Oedema peripheral (TEAE): 1 (16.7) n(%)
  Pyrexia (TEAE): 0 (0.0) n(%)
  Rash maculopapular (TEAE): 0 (0.0) n(%)
  Subjects with Any TEAEs: 6 (100.0) n(%)
  Upper respiratory tract infection (TEAE): 3 (50.0) n(%)
100 mg QD (N = 9)
  Abdominal pain (TEAE): 2 (2.2) n(%)
  Anaemia (TEAE): 2 (22.2) n(%)
  Back pain (TEAE): 0 (0.0) n(%)
  Constipation (TEAE): 0 (0.0) n(%)
  Contusion (TEAE): 0 (0.0) n(%)
  Cough (TEAE): 0 (0.0) n(%)
  Diarrhoea (TEAE): 3 (33.3) n(%)
  Dizziness (TEAE): 1 (11.1) n(%)
  Dyspnoea (TEAE): 2 (22.2) n(%)
  Fatigue (TEAE): 2 (22.2) n(%)
  Headache (TEAE): 1 (11.1) n(%)
  Nausea (TEAE): 1 (11.1) n(%)
  Neutropenia (TEAE): 0 (0.0) n(%)
  Neutrophil count decreased (TEAE): 0 (0.0) n(%)
  Oedema peripheral (TEAE): 0 (0.0) n(%)
  Pyrexia (TEAE): 1 (11.1) n(%)
  Rash maculopapular (TEAE): 1 (11.1) n(%)
  Subjects with Any TEAEs: 8 (88.9) n(%)
  Upper respiratory tract infection (TEAE): 1 (11.1) n(%)
150 mg QD (N = 20)
  Abdominal pain (TEAE): 1 (5.0) n(%)
  Anaemia (TEAE): 3 (15.0) n(%)
  Back pain (TEAE): 5 (25.0) n(%)
  Constipation (TEAE): 5 (25.0) n(%)
  Contusion (TEAE): 3 (15.0) n(%)
  Cough (TEAE): 3 (15.0) n(%)
  Diarrhoea (TEAE): 5 (25.0) n(%)
  Dizziness (TEAE): 2 (10.0) n(%)
  Dyspnoea (TEAE): 2 (10.0) n(%)
  Fatigue (TEAE): 3 (15.0) n(%)
  Headache (TEAE): 4 (20.0) n(%)
  Nausea (TEAE): 1 (5.0) n(%)
  Neutropenia (TEAE): 4 (20.0) n(%)
  Neutrophil count decreased (TEAE): 3 (15.0) n(%)
  Oedema peripheral (TEAE): 3 (15.0) n(%)
  Pyrexia (TEAE): 1 (5.0) n(%)
  Rash maculopapular (TEAE): 2 (10.0) n(%)
  Subjects with Any TEAEs: 20 (100.0) n(%)
  Upper respiratory tract infection (TEAE): 7 (35.0) n(%)
200 mg QD (N = 238)
  Abdominal pain (TEAE): 14 (5.9) n(%)
  Anaemia (TEAE): 16 (6.7) n(%)
  Back pain (TEAE): 14 (5.9) n(%)
  Constipation (TEAE): 14 (5.9) n(%)
  Contusion (TEAE): 28 (11.8) n(%)
  Cough (TEAE): 15 (6.3) n(%)
  Diarrhoea (TEAE): 33 (13.9) n(%)
  Dizziness (TEAE): 10 (4.2) n(%)
  Dyspnoea (TEAE): 16 (6.7) n(%)
  Fatigue (TEAE): 39 (16.4) n(%)
  Headache (TEAE): 14 (5.9) n(%)
  Nausea (TEAE): 16 (6.7) n(%)
  Neutropenia (TEAE): 15 (6.3) n(%)
  Neutrophil count decreased (TEAE): 10 (4.2) n(%)
  Oedema peripheral (TEAE): 14 (5.9) n(%)
  Pyrexia (TEAE): 17 (7.1) n(%)
  Rash maculopapular (TEAE): 12 (5.0) n(%)
  Upper respiratory tract infection (TEAE): 3 (1.3) n(%)
250 mg QD (N = 25)
  Abdominal pain (TEAE): 0 (0.0) n(%)
  Anaemia (TEAE): 2 (8.0) n(%)
  Back pain (TEAE): 3 (2.0) n(%)
  Constipation (TEAE): 3 (12.0) n(%)
  Contusion (TEAE): 5 (20.0) n(%)
  Cough (TEAE): 3 (12.0) n(%)
  Diarrhoea (TEAE): 5 (20.0) n(%)
  Dizziness (TEAE): 1 (4.0) n(%)
  Dyspnoea (TEAE): 2 (8.0) n(%)
  Fatigue (TEAE): 10 (40.0) n(%)
  Headache (TEAE): 3 (12.0) n(%)
  Nausea (TEAE): 5 (20.0) n(%)
  Neutropenia (TEAE): 1 (4.0) n(%)
  Oedema peripheral (TEAE): 2 (8.0) n(%)
  Pyrexia (TEAE): 2 (8.0) n(%)
  Rash maculopapular (TEAE): 2 (8.0) n(%)
  Subjects with Any TEAEs: 25 (100.0) n(%)
  Upper respiratory tract infection (TEAE): 6 (24.0) n(%)
Overall (N = 323)
  Abdominal pain (TEAE): 20 (6.2) n (%)
  Anaemia (TEAE): 24 (7.4) n (%)
  Back pain (TEAE): 25 (7.7) n (%)
  Constipation (TEAE): 25 (7.7) n (%)
  Contusion (TEAE): 42 (13.0) n (%)
  Cough (TEAE): 29 (9.0) n (%)
  Diarrhoea (TEAE): 55 (17.0) n (%)
  Dizziness (TEAE): 18 (5.6) n (%)
  Dyspnoea (TEAE): 26 (8.0) n (%)
  Fatigue (TEAE): 65 (20.1) n (%)
  Headache (TEAE): 29 (9.0) n (%)
  Nausea (TEAE): 30 (9.3) n (%)
  Neutropenia (TEAE): 24 (7.4) n (%)
  Neutrophil count decreased (TEAE): 22 (6.8) n (%)
  Oedema peripheral (TEAE): 22 (6.8) n (%)
  Pyrexia (TEAE): 23 (7.1) n (%)
  Rash maculopapular (TEAE): 20 (6.2) n (%)
  Subjects with Any TEAEs: 264 (81.7) n (%)
  Upper respiratory tract infection (TEAE): 23 (7.1) n (%)
human, in vivo
  rates of atrial arrhythmias and major bleeding: low rates
  tolerability in patients: appeared to be well tolerated
n=42 of 323 patients
  contusion, treatment emergent adverse event regardless of attribution or grade: 13%
n=55 of 323 patients
  diarrhea, treatment emergent adverse event regardless of attribution or grade: 17%
n=65 of 323 patients
  fatigue, treatment emergent adverse event regardless of attribution or grade: 20%
Up to 300 mg QD
  maximum tolerated dose (MTD): lack of an MTD
